Values of other authors, collected in patent publication US20230212091A1, “Compositions for Increasing Nitrogen Sources Life Span in Plant Growth Mediums and Methods of Making” (Soilgenic Technologies, LLC, priority 2017, published 2023).

Settings: at 20° C.

N#CN=C(N)N [DCD, dicyandiamide]
solubility in water: approximately 32 grams/liter
